System: prolactin
Assay: Serum prolactin levels in rats, reserpinized and non-reserpinized
Format: in vivo, rats of the Sprague-Dawley strain
Conditions: for Prolactin Levels Non-Reserpinized 1 / Prolactin Levels Non-Reserpinized 2: rats not pretreated with reserpine, compound 1 mg./kg.; for Prolactin Levels Non-Reserpinized 1: run 1; for Prolactin Levels Non-Reserpinized 2: run 2; for Prolactin Levels Reserpinize: reserpine 2.0 mg. i.p. 18 hours before, compound 1 mg./kg. intraperitoneally, serum one hour after treatment
Method: Adult male rats of the Sprague-Dawley strain weighing about 200 g. were housed in an air-conditioned room with controlled lighting (lights on 6 a.m. - 8 p.m.) and fed lab chow and water ad libitum. Each rat received an intraperitoneal.injection of 2.0 mg. of reserpine in aqueous suspension 18 hours before administration of the compound of formula I. The purpose of the reserpine was to keep prolactin levels uniformly elevated. The compounds under test were dissolved in water and were injected intraperitoneally at a 1 mg./kg. dose level. Each compound was administered to a group of 10 rats, and a control group of 10 intact males received an equivalent amount of solvent. One hour after treatment all rats were killed by decapitation, and 150 ul. aliquots of serum were assayed for prolactin.
In addition, prolactin levels were determined in two runs in which the rats were not pretreated with reserpin. The dose level of the drug was maintained at 1 mg./kg.

**Q.** Which “Prolactin Levels Non-Reserpinized 1” value does the source give for `CCCN1CCc2cc(O)c(O)c3c2C1Cc1c[nH]nc1-3` (racemic) [1,2-Dihydroxy-6-n-propyl-4,5,,6,6a,7,9-hexahydroindazolo[7,6,5-ij]isoquinoline] here?
**A.** 40.0±9.5 (P<.05)

**Q.** And the “Prolactin Levels Non-Reserpinized 2” value?
**A.** 23.8±2.8

**Q.** And the “Prolactin Levels Reserpinize” value?
**A.** 49.9±6.0 (P<.01)

**Q.** With `C=CCN1CCc2cc(OC)c(OC)c3c2C1Cc1c[nH]nc1-3` (racemic) [l,2-Dimethoxy-6-allyl-4,5,6,6a,7,9-hexahydroindazolo[7,6,5-ij]isoquinoline] as the molecule, how does the “Prolactin Levels Non-Reserpinized 1” value read?
**A.** 7.3±1.6

**Q.** What about the “Prolactin Levels Reserpinize” value of the same molecule?
**A.** 26.7±2.7

**Q.** For `CN1CCc2cc(O)c(O)c3c2C1Cc1c[nH]nc1-3` (stereo not shown) [1,2-Dihydroxy-6-methyl-4,5,6,6a,7,9-hexahydroindazolo[7,6,5-ij]isoquinoline], which “Prolactin Levels Non-Reserpinized 1” value is on record?
**A.** 45.2±5.4 (P<.001)

**Q.** What about the “Prolactin Levels Non-Reserpinized 2” value of the same molecule?
**A.** 21.6±3.9

**Q.** What about the “Prolactin Levels Reserpinize” value of the same molecule?
**A.** 36.4±4.9

**Q.** Which “Prolactin Levels Non-Reserpinized 1” value does the source give for `CCN1CCc2cc(OC)c(OC)c3c2C1Cc1c[nH]nc1-3` (stereo not shown) [1,2-Dimethoxy-6-ethyl-4,5,6,6a,7,9-hexahydroindazolo[7,6,5-ij]isoquinoline] here?
**A.** 4.6±0.6

**Q.** And the “Prolactin Levels Reserpinize” value?
**A.** 30.5±4.9

**Q.** For `COc1cc2c3c(c1OC)-c1n[nH]cc1CC3N(C)CC2` (stereo not shown) [1,2-Dimethoxy-6-methyl-4,5,6,6a,7,9-hexahydroindazolo[7,6,5-ij]isoquinoline], which “Prolactin Levels Non-Reserpinized 1” value is on record?
**A.** 36.6±6.6 (P<.02)

**Q.** And the “Prolactin Levels Non-Reserpinized 2” value?
**A.** 9.0±3.2

**Q.** What about the “Prolactin Levels Reserpinize” value of the same molecule?
**A.** 41.6±7.7

**Q.** What does the source list for `CN1CCc2cccc3c2C1Cc1c[nH]nc1-3` (stereo not shown) [6-Methyl-4,5,6,6a,7,9-hexahydroindazolo-[7,6,5-ij]isoquinoline]?
**A.** Prolactin Levels Non-Reserpinized 1: 19.7±3.1; Prolactin Levels Non-Reserpinized 2: 11.8±2.7; Prolactin Levels Reserpinize: 39.3±7.3

**Q.** With `CCCN1CCc2cccc3c2C1Cc1c[nH]nc1-3` (stereo not shown) [6-n-Propyl-4,5,6,6a,7,9-hexahydroindazolo[7,6,5-ij]isoquinoline] as the molecule, how does the “Prolactin Levels Non-Reserpinized 1” value read?
**A.** 9.5±1.7

**Q.** And the “Prolactin Levels Non-Reserpinized 2” value?
**A.** 7.8±2.6

**Q.** What about the “Prolactin Levels Reserpinize” value of the same molecule?
**A.** 22.6±3.8

Source: EP0061341A2, “6-Substituted hexahydroindazolo isoquinolines” (priority 1981, dated 1982)
